Laboratory results reported in US8017629B2, “Compounds and uses thereof in modulating amyloid β” (Neurogenetic Pharmaceuticals, Inc., priority 2003, dated 2011).

Tested on: Aβ42 levels in the extracellular medium
Test: FRET (HTRF) assay, Aβ42 level of the extracellular medium of SH-SY5Y-APP cells
Assay type: cell-based
Conditions: Homo sapiens, concentration at which reduction of Aβ42 level was half of the maximum reduction, read-out: Ab42 Potency
Method: Compounds were evaluated for activity in modulating Aβ42 and Aβ40 levels in the extracellular medium using a homogeneous time-resolved fluorescence (HTRF) assay as follows.
For the HTRF assay, either 5 or 10 μl of supernatant from treated cells was added to 10 or 15 μl of labeled antibody pairs, for a total volume of 20 μl, and incubated for 20-24 hours at 4° C. The labeled antibody pairs were either 8000 pg B436-XL665 and 400 pg B113 Europium, for assessing Aβ40 levels, or 8000 pg B436-XL665 and 400 pg A387 Europium, for assessing Aβ42 levels, diluted in 50 mM NaPO4, 0.2% BSA, 0.5M KF, pH 7. The fluorescence was read on a BMG Rubystar at 620 nm and 665 nm.

Compared with `COc1ccc(-c2nc(Nc3cc(Cl)c(Cl)cc3Cl)sc2CC(=O)O)cc1` [Compound 187], `CS(=O)(=O)c1ccc(-c2csc(Nc3c(Cl)cc(Cl)cc3Cl)n2)cc1` [Compound 214] is higher in EC50: 1.1 to 5 µM for the first, 10.1 to 30 µM for the second.

First: CN1CCC(CNc2ccc(Nc3nc(-c4ccc(-n5ccnc5)cc4)cs3)cc2)CC1 [Compound 188]
Second: CN1CCC(CNc2ccc(Nc3nc(-c4ccc(-n5ccnc5)cc4)cs3)c(C(F)(F)F)c2)CC1 [Compound 216]
The EC50 of the first is lower: 1.1 to 5 µM for the first, 5.1 to 10 µM for the second.

First: CCN(CC)c1ccc(Nc2nc(-c3ccc(-n4ccnc4C)cc3)cs2)c(C)c1 [Compound 189]
Second: CCN(CC)c1ccc(Nc2nc(-c3ccc(-n4cnc(Br)c4)cc3)cs2)c(C)c1 [Compound 199]
The EC50 of the first is higher: 1.1 to 5 µM for the first, 0.2 to 1 µM for the second.

Compared with `CCN(CC)c1ccc(Nc2nc(-c3ccc(-n4cnc(C)c4)cc3OC)cs2)c(C)c1` [Compound 190], `CCN(CCO)c1ccc(Nc2nc(-c3ccc(-n4cnc(C)c4)cc3OC)cs2)c(C)c1` [Compound 207] is higher in EC50: 0.2 to 1 µM for the first, 1.1 to 5 µM for the second. The first is the more potent here.

First: CN1CCN(C(=O)c2ccc(Nc3nc(-c4ccc(N5CCN(C)CC5)cc4)cs3)cc2)CC1 [Compound 191]
Second: CC(C)N1CCN(C(=O)c2ccc(Nc3nc(-c4ccc(N5CCN(C)CC5)cc4)cs3)cc2)CC1 [Compound 192]
The EC50 of the first is lower: 1.1 to 5 µM for the first, 5.1 to 10 µM for the second.

`Cc1ccc(Nc2nc(-c3ccc(C#N)cc3)cs2)cc1Cl` [Compound 193] and `N#Cc1ccc(-c2csc(Nc3cc(Cl)cc(Cl)c3)n2)cc1` [Compound 211] fall in the same range of EC50: 10.1 to 30 µM for the first, 10.1 to 30 µM for the second.

First: COc1ccc(-c2csc(Nc3ccc(C)c(Cl)c3)n2)c(OC)c1 [Compound 194]
Second: COc1ccc(C)c(Nc2nc(-c3ccc(-n4cnc(C)c4)nc3)cs2)c1 [Compound 197]
The EC50 of the first is higher: 1.1 to 5 µM for the first, under 0.2 µM for the second. The second is the more potent here.

Compared with `Cc1ccc(Nc2nc(-c3ccc(N4CCN(C)CC4)cc3)cs2)cc1C` [Compound 195], `CN1CCN(c2ccc(-c3csc(Nc4ccc(OC(F)(F)F)c(Cl)c4)n3)cc2)CC1` [Compound 198] is lower in EC50: 10.1 to 30 µM for the first, 1.1 to 5 µM for the second. The second is the more potent here.

First: CSc1ccccc1Nc1nc(-c2ccc(N3CCN(C)CC3)cc2)cs1 [Compound 196]
Second: Cc1cc(N2CCN(C)CC2)ccc1Nc1nc(-c2ccc(-n3ccnc3)cc2)cs1 [Compound 200]
The EC50 of the first is higher: 5.1 to 10 µM for the first, 1.1 to 5 µM for the second.

`Cc1cc(N2CCN(Cc3ccccc3)CC2)ccc1Nc1nc(-c2ccc(-n3ccnc3)cc2)cs1` [Compound 201] and `CN1CCN(c2ccc(Nc3nc(-c4ccc(-n5ccnc5)cc4)cs3)c(C(F)(F)F)c2)CC1` [Compound 215] fall in the same range of EC50: 1.1 to 5 µM for the first, 1.1 to 5 µM for the second.

`Cc1cc(NCCN(C)C)ccc1Nc1nc(-c2ccc(-n3ccnc3)cc2)cs1` [Compound 202] and `CN(C)CCNc1ccc(Nc2nc(-c3ccc(-n4ccnc4)cc3)cs2)c(C(F)(F)F)c1` [Compound 217] fall in the same range of EC50: 1.1 to 5 µM for the first, 1.1 to 5 µM for the second.

First: CCN(CCO)c1ccc(Nc2nc(-c3ccc(-n4ccnc4)cc3)cs2)c(C)c1 [Compound 203]
Second: CCN(CCO)c1ccc(Nc2nc(-c3ccc(-n4cnc(C)c4)cc3)cs2)c(C)c1 [Compound 204]
The EC50 of the first is higher: 1.1 to 5 µM for the first, 0.2 to 1 µM for the second.

Compared with `CCN(CC)c1ccc(Nc2nc(-c3ccc(-n4cnc(C)c4)cc3C(F)(F)F)c(C)s2)c(C)c1` [Compound 205], `CCN(CCO)c1ccc(Nc2nc(-c3ccc(-n4cnc(C)c4)cc3C(F)(F)F)c(C)s2)c(C)c1` [Compound 206] is higher in EC50: 1.1 to 5 µM for the first, 5.1 to 10 µM for the second.

`Cc1cc(NCc2ccccn2)ccc1Nc1nc(-c2ccc(-n3ccnc3)cc2)cs1` [Compound 208] and `CCc1ccc(C)nc1Nc1ccc(Nc2nc(-c3ccc(-n4ccnc4)cc3)cs2)c(C)c1` [Compound 209] fall in the same range of EC50: 5.1 to 10 µM for the first, 5.1 to 10 µM for the second.

`CCN(CC)CCN(C)c1ccc(Nc2nc(-c3ccc(-n4ccnc4)cc3)cs2)c(C)c1` [Compound 210] and `CCN(CC)c1ccc(Nc2nc(-c3ccc(-n4ccnc4)cc3)cs2)c(C(F)(F)F)c1` [Compound 218] fall in the same range of EC50: 1.1 to 5 µM for the first, 1.1 to 5 µM for the second.

`Brc1cccc(Nc2nc(-c3ccc(-n4ccnc4)cc3)cs2)c1` [Compound 212] and `Clc1cc(Cl)c(Nc2nc(-c3ccc(-n4ccnc4)cc3)cs2)c(Cl)c1` [Compound 213] fall in the same range of EC50: 1.1 to 5 µM for the first, 1.1 to 5 µM for the second.
